Among the data in US8440698B2, “3-(4-((1H-imidazol-1-yl)methyl)phenyl)-5-aryl-1,2,4-oxadiazole derivatives as sphingosine-1 phosphate receptors modulators” (Allergan, Inc., priority 2010, dated 2013) are Emax and EC50 values, retold here.

This experiment addresses T1, human S1P1 receptor (Homo sapiens, UniProt P21453).
T1 construct: expressed in transfected cells; membranes used
Briefly: GTP γ35S binding assay for S1P1 activity. Format: biochemical. Particulars: for Emax at 5 µM: intrinsic activity at 5 μM, read-out: % S1P1 STIMULATION @ 5 μM; for EC50: membranes of cells stably expressing S1P1, test concentrations 0.08 to 5,000 nM, read-out: S1P1 GTPγ^35S EC50. The method, then: Novel compounds were synthesized and tested for S1P1 activity using the GTP γ^35S binding assay. These compounds may be assessed for their ability to activate or block activation of the human S1P1 receptor in cells stably expressing the S1P1 receptor. GTP γ^35S binding was measured in the medium containing (mM) HEPES 25, pH 7.4, MgCl2 10, NaCl 100, dithitothreitol 0.5, digitonin 0.003%, 0.2 nM GTP γ^35S, and 5 μg membrane protein in a volume of 150 μl. Test compounds were included in the concentration range from 0.08 to 5,000 nM unless indicated otherwise. Membranes were incubated with 100 μM 5′-adenylylimmidodiphosphate for 30 min, and subsequently with 10 μM GDP for 10 min on ice. Drug solutions and membrane were mixed, and then reactions were initiated by adding GTP γ^35S and continued for 30 min at 25° C. Reaction mixtures were filtered over Whatman GF/B filters under vacuum, and washed three times with 3 mL of ice-cold buffer (HEPES 25, pH7.4, MgCl2 10 and NaCl 100). Filters were dried and mixed with scintillant, and counted for ^35S activity using a β-counter. Agonist-induced GTP γ^35S binding was obtained by subtracting that in the absence of agonist. Binding data were analyzed using a non-linear regression method. In case of antagonist assay, the reaction mixture contained 10 nM S1P in the presence of test antagonist at concentrations ranging from 0.08 to 5000 nM.

T1 sequence (P21453 whole entry): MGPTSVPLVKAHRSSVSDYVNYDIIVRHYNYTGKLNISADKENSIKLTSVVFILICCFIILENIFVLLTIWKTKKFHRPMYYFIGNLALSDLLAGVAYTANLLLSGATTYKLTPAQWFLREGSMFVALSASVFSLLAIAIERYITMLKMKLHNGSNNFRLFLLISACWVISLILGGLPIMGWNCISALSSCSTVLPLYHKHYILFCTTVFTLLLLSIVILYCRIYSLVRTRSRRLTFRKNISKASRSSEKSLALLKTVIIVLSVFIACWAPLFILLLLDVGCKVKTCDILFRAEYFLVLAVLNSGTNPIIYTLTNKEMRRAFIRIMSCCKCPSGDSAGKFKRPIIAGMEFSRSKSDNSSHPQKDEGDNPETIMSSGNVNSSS

One may read the EC50 as the midpoint of the concentration-response curve. `CC(C)Oc1ccc(-c2nc(-c3ccc(Cn4ccnc4)cc3Cl)no2)cc1[N+](=O)[O-]` [3-[2-chloro-4-(1H-imidazol-1-ylmethyl)phenyl]-5-(4-isopropoxy-3-nitrophenyl)-1,2,4-oxadiazole]: the Emax at 5 µM turned out to be 92.3% and the half-maximal effective concentration (EC50) was found to be 8.79 nM.
On the same counts, the results for `CC(C)Oc1ccc(-c2nc(-c3ccc(Cn4ccnc4)cc3Cl)no2)cc1C(F)(F)F` [3-[2-chloro-4-(1H-imidazol-1-ylmethyl)phenyl]-5-[4-isopropoxy-3-(trifluoromethyl)phenyl]-1,2,4-oxadiazole] are 79.6% and 3.55 nM.
`Cc1cc(-c2nc(-c3ccc(Cn4ccnc4)cc3C(F)(F)F)no2)ccc1OC(C)C` [3-[4-(1H-imidazol-1-ylmethyl)-2-(trifluoromethyl)phenyl]-5-(4-isopropoxy-3-methylphenyl)-1,2,4-oxadiazole]: the Emax at 5 µM was 7.4%.
Consider `CC(C)Oc1ccc(-c2nc(-c3ccc(Cn4ccnc4)cc3C(F)(F)F)no2)cc1[N+](=O)[O-]` [3-[4-(1H-imidazol-1-ylmethyl)-2-(trifluoromethyl)phenyl]-5-(4-isopropoxy-3-nitrophenyl)-1,2,4-oxadiazole], for which the Emax at 5 µM is 79.4% and the concentration giving a half-maximal response (EC50) amounted to 6.37 nM.
On the same counts, the results for `CC(C)Oc1ccc(-c2nc(-c3ccc(Cn4ccnc4)cc3C(F)(F)F)no2)cc1C(F)(F)F` [3-[4-(1H-imidazol-1-ylmethyl)-2-(trifluoromethyl)phenyl]-5-[4-isopropoxy-3-(trifluoromethyl)phenyl]-1,2,4-oxadiazole] are 80.9% and 62.4 nM.
On to `CC(C)Oc1ccc(-c2nc(-c3ccc(Cn4ccnc4)cc3C(F)(F)F)no2)cc1Br` [5-(3-Bromo-4-isopropoxy-phenyl)-3-(4-imidazol-1-ylmethyl-2-trifluoromethyl-phenyl)-[1,2,4]oxadiazole], for which the Emax at 5 µM worked out at 100% and the EC50 came to 102 nM.
On the same counts, the results for `CC(C)COc1ccc(-c2nc(-c3ccc(Cn4ccnc4)cc3C(F)(F)F)no2)cc1Br` [5-(3-bromo-4-isobutoxyphenyl)-3-[4-(1H-imidazol-1-ylmethyl)-2-(trifluoromethyl)phenyl]-1,2,4-oxadiazole] are 98.3% and 144 nM.
On the same counts, the results for `CC(C)Oc1ccc(-c2nc(-c3ccc(Cn4ccnc4)cc3Cl)no2)cc1Br` [5-(3-bromo-4-isopropoxyphenyl)-3-[2-chloro-4-(1H-imidazol-1-ylmethyl)phenyl]-1,2,4-oxadiazole] are 102% and 29.7 nM.
For the compound `CC(C)Oc1ccc(-c2nc(-c3ccc(Cn4ccnc4)cc3C(F)(F)F)no2)cc1C#N` [5-[3-(4-Imidazol-1-ylmethyl-2-trifluoromethyl-phenyl)-[1,2,4]oxadiazol-5-yl]-2-isopropoxy-benzonitrile], the Emax at 5 µM was found to be 97.6% and the 50% effective concentration (EC50) came out at 5.22 nM.
On the same counts, the results for `FC(F)(F)c1cc(Cn2ccnc2)ccc1-c1noc(-c2ccc(OC3CC3)c(Br)c2)n1` [5-[3-bromo-4-(cyclopropyloxy)phenyl]-3-[4-(1H-imidazol-1-ylmethyl)-2-(trifluoromethyl)phenyl]-1,2,4-oxadiazole] are 89.6% and 119 nM.
On the same counts, the results for `CC(C)Oc1ccc(-c2nc(-c3ccc(Cn4ccnc4)cc3Cl)no2)cc1C#N` [5-{3-[2-chloro-4-(1H-imidazol-1-ylmethyl)phenyl]-1,2,4-oxadiazol-5-yl}-2-isopropoxybenzonitrile] are 94.9% and 4.56 nM.
`CC1CCCCN1c1ccc(-c2nc(-c3ccc(Cn4ccnc4)cc3)no2)cc1C#N` (stereo not drawn) [5-{3-[4-(1H-imidazol-1-ylmethyl)phenyl]-1,2,4-oxadiazol-5-yl}-2-(2-methylpiperidin-1-yl)benzonitrile]: the Emax at 5 µM is 99.9% and the EC50 amounted to 130 nM.
`Brc1cc(-c2nc(-c3ccc(Cn4ccnc4)cc3)no2)ccc1OC1CC1` [Compound 1, 5-(3-Bromo-4-cyclopropoxy-phenyl)-3-(4-imidazol-1-ylmethyl-phenyl)-[1,2,4]oxadiazole]: the Emax at 5 µM came to 99.9% and the EC50 worked out at 14.4 nM.
On the same counts, the results for `Cc1cc(Cn2ccnc2)ccc1-c1noc(-c2ccc(OC3CC3)c(Br)c2)n1` [Compound 2, 5-(3-Bromo-4-cyclopropoxy-phenyl)-3-(4-imidazol-1-ylmethyl-2-methyl-phenyl)-[1,2,4]oxadiazole] are 96% and 32 nM.
On the same counts, the results for `CC(C)Oc1ccc(-c2nc(-c3ccc(Cn4ccnc4)cc3)no2)cc1C(F)(F)F` [Compound 3, 3-(4-Imidazol-1-ylmethyl-phenyl)-5-(4-isopropoxy-3-trifluoromethyl-phenyl)-[1,2,4]oxadiazole] are 95.6% and 0.51 nM.
On the same counts, the results for `CC(C)COc1ccc(-c2nc(-c3ccc(Cn4ccnc4)cc3)no2)cc1C(F)(F)F` [Compound 4, 3-(4-Imidazol-1-ylmethyl-phenyl)-5-(4-isobutoxy-3-trifluoromethyl-phenyl)-[1,2,4]oxadiazole] are 72.2% and 998 nM.
Consider `FC(F)(F)c1cc(-c2nc(-c3ccc(Cn4ccnc4)cc3)no2)ccc1OC1CCCCC1` [Compound 5, 5-(4-Cyclohexyloxy-3-trifluoromethyl-phenyl)-3-(4-imidazol-1-ylmethyl-phenyl)-[1,2,4]oxadiazole], for which the Emax at 5 µM is 91.8% and the concentration for a half-maximal effect (EC50) amounted to 149 nM.
For the compound `Cc1cc(Cn2ccnc2)ccc1-c1noc(-c2ccc(OC(C)C)c(C(F)(F)F)c2)n1` [Compound 6, 3-(4-Imidazol-1-ylmethyl-2-methyl-phenyl)-5-(4-isopropoxy-3-trifluoromethyl-phenyl)-[1,2,4]oxadiazole], the Emax at 5 µM turned out to be 95.5% and the EC50 came out at 3.38 nM.
With `CC(C)Oc1ccc(-c2nc(-c3ccc(Cn4ccnc4)cc3)no2)cc1[N+](=O)[O-]` [Compound 7, 3-(4-Imidazol-1-ylmethyl-phenyl)-5-(4-isopropoxy-3-nitro-phenyl)-[1,2,4]oxadiazole], the Emax at 5 µM worked out at 118% and the 50% effective concentration (EC50) is 3.24 nM.
`CC(C)COc1ccc(-c2nc(-c3ccc(Cn4ccnc4)cc3)no2)cc1C#N` [Compound 8, 5-[3-(4-Imidazol-1-ylmethyl-phenyl)-[1,2,4]oxadiazol-5-yl]-2-isobutoxy-benzonitrile]: the Emax at 5 µM worked out at 75.9% and the EC50 was 62 nM.
On the same counts, the results for `CC(C)COc1ccc(-c2nc(-c3ccc(Cn4ccnc4)cc3)no2)cc1Br` [Compound 9, 5-(3-Bromo-4-isobutoxy-phenyl)-3-(4-imidazol-1-ylmethyl-phenyl)-[1,2,4]oxadiazole] are 86.2% and 28.6 nM.
On the same counts, the results for `CC(C)Cc1ccc(-c2nc(-c3ccc(Cn4ccnc4)cc3)no2)cc1` [Compound 10, 3-(4-Imidazol-1-ylmethyl-phenyl)-5-(4-isobutyl-phenyl)-[1,2,4]oxadiazole] are 79.8% and 543 nM.
On the same counts, the results for `CC(C)Oc1ccc(-c2nc(-c3ccc(Cn4ccnc4)cc3)no2)cc1` [Compound 11, 3-(4-Imidazol-1-ylmethyl-phenyl)-5-(4-isopropoxy-phenyl)-[1,2,4]oxadiazole] are 92.8% and 453 nM.
`CC(C)Oc1ccc(-c2nc(-c3ccc(Cn4ccnc4)cc3)no2)cc1C#N` [Compound 12, 5-[3-(4-Imidazol-1-ylmethyl-phenyl)-[1,2,4]oxadiazol-5-yl]-2-isopropoxy-benzonitrile]: the Emax at 5 µM came out at 94.6% and the EC50 worked out at 3.31 nM.
On the same counts, the results for `Cc1cc(Cn2ccnc2)ccc1-c1noc(-c2ccc(OC(C)C)c(C#N)c2)n1` [Compound 13, 5-[3-(4-Imidazol-1-ylmethyl-2-methyl-phenyl)-[1,2,4]oxadiazol-5-yl]-2-isopropoxy-benzonitrile] are 96.4% and 4.76 nM.
On the same counts, the results for `CC(C)Oc1ccc(-c2nc(-c3ccc(Cn4ccnc4)cc3)no2)cc1Br` [Compound 14, 5-(3-Bromo-4-isopropoxy-phenyl)-3-(4-imidazol-1-ylmethyl-phenyl)-[1,2,4]oxadiazole] are 93.9% and 0.92 nM.
With `Cc1cc(Cn2ccnc2)ccc1-c1noc(-c2ccc(OC(C)C)c(Br)c2)n1` [Compound 15, 5-(3-Bromo-4-isopropoxy-phenyl)-3-(4-imidazol-1-ylmethyl-2-methyl-phenyl)-[1,2,4]oxadiazole], the Emax at 5 µM is 109% and the EC50 came to 19.6 nM.
With `CC(C)Oc1ccc(-c2nc(-c3ccc(Cn4ccnc4)cc3)no2)cc1Cl` [Compound 16, 5-(3-Chloro-4-isopropoxy-phenyl)-3-(4-imidazol-1-ylmethyl-phenyl)-[1,2,4]oxadiazole], the Emax at 5 µM worked out at 99.8% and the half-maximal effective concentration (EC50) amounted to 2.79 nM.
On the same counts, the results for `Cc1cc(-c2nc(-c3ccc(Cn4ccnc4)cc3)no2)ccc1OC(C)C` [Compound 17, 3-(4-Imidazol-1-ylmethyl-phenyl)-5-(4-isopropoxy-3-methyl-phenyl)-[1,2,4]oxadiazole] are 133% and 10.3 nM.
